Results as given in US9040106B2, “Pharmaceutical composition for preventing or treating diabetic erectile dysfunction comprising C3G or extract of mulberry containing C3G” (CATHOLIC UNIVERSITY INDUSTRY-ACADEMIC COOPERATION FOUNDATION, priority 2011, dated 2015).

Tests used:
Assay type in all cases: in vivo, Sprague-Dawley rats
[1] = test system: 8-OHdG in corpora tissues; assay: Measurement of 8-OHdG (oxidative stress) by ELISA; conditions: diabetic rats, daily oral C3G 10 mg/kg for 8 weeks; DM 0.917±0.247, normal 0.140±0.13
Procedure: (§1) Thirty-six 12-wk-old male Sprague-Dawley rats were treated under a protocol approved by the Institutional Animal Care and Use Committee (CUMC-2010-0137-02) and handled according to NIH guidelines. Rats were divided equally into three groups (n=12 in each): control, diabetes (DM), and diabetes with C3G concentration materials treatment (DM+C3G). All rats in the DM and DM+C3G groups received a single intraperitoneal injection of streptozotosin (50 mg/kg). Blood glucose and body weight were monitored weekly and significant diabetes (serum glucose >250 mg/dl) was confirmed in all rats within 1 wk. The diabetic serum level was maintained throughout the experiment. Four weeks after the induction of diabetes, rats in the DM+C3G group were treated with daily oral C3G (10 mg/kg) dissolved in water for 8 weeks. […]
Oxidative stress in corpora tissues was evaluated by quantifying the levels of 8-hydroxy-2-deoxyguanosine (8-OHdG) as oxidatively modified DNA. […] Levels of 8-OHdG were measured with a DNA oxidation kit (Highly Sensitive 8-OHdG Check ELISA; Japan Institute for the Control of Aging, Fukuroi, Japan) according to the manufacturer's protocol. […] After the final color was developed with the addition of 3,3′,5,5′-tetramethylbenzidine, absorbance was measured at 450 nm. Tissue sample concentration was calculated from a standard curve and was corrected for DNA concentration.

[2] = test system: smooth muscle and collagen in corporal tissue; assay: Masson's trichrome staining of cavernosal tissue
Procedure: (§2) Thirty-six 12-wk-old male Sprague-Dawley rats were treated under a protocol approved by the Institutional Animal Care and Use Committee (CUMC-2010-0137-02) and handled according to NIH guidelines. Rats were divided equally into three groups (n=12 in each): control, diabetes (DM), and diabetes with C3G concentration materials treatment (DM+C3G). All rats in the DM and DM+C3G groups received a single intraperitoneal injection of streptozotosin (50 mg/kg). Blood glucose and body weight were monitored weekly and significant diabetes (serum glucose >250 mg/dl) was confirmed in all rats within 1 wk. The diabetic serum level was maintained throughout the experiment. Four weeks after the induction of diabetes, rats in the DM+C3G group were treated with daily oral C3G (10 mg/kg) dissolved in water for 8 weeks. After the 12 weeks, intracavernosal pressure measurement (ICP) was performed, and after ICP measurement, the skin-denuded middle part of the penile shafts was cut and fixed overnight in 10% formalin, washed, and stored in 70% alcohol at 4° C. until processed for paraffin-embedded tissue sectioning (5 μm). […].
After ICP, the skin denuded middle part of the penile shafts were fixed overnight in 10% formalin, washed, and stored in 70% alcohol at 4° C. until processed for paraffin-embedded tissue sectioning (5 μm). The cavernosal tissue was obtained for the Masson's trichrome staining. After staining, the color distribution of the muscle tissue was approximated by using the Adobe Photoshop CS 8.0. After the entire color distribution of the image was calculated, we selected the muscle tissue distribution, expressed as the color red. There were somewhat standard deviations in our calculation because of color overlays and ambiguity of the color spectrum of the muscle tissues.

[3] = test system: apoptosis in corporal tissue; assay: TUNEL assay for apoptosis; conditions: diabetic rats, daily oral C3G 10 mg/kg for 8 weeks; DM 39.6±4.6, control 15.3±3.0
Procedure: as §1
To assess apoptosis in the corpora tissues, the terminal deoxynucleotidyl transferase mediated dUTP nick end labeling (TUNEL) assay was performed using Apop Tag In Situ Apoptosis Detection Kits (Millipore Co., MA, US). […] The number of cells positive for the TUNEL assay was counted and the difference among the groups was assessed. For the count of cells positive for the TUNEL assay, 5 sites were selected randomly from a slide of each group, and the number of cells positive for the TUNEL assay was counted as the average of 5 sites under a light microscope at 400× magnification.

[4] = Serum glucose of streptozotosin-induced diabetic rats; conditions: DM+C3G group
Procedure: as §2

[5] = test system: rat model of diabetic erectile dysfunction; assay: Intracavernosal pressure measurement on electrical stimulation of the cavernosal nerve; conditions: diabetic rats, daily oral C3G 10 mg/kg for 8 weeks
Procedure: as §2
Rats were anaesthetized with an intraperitoneal injection of 0.2 mL tiletamine (Zoletil®). […] Both mean arterial pressure (MAP) and ICP were continuously monitored during electrical stimulation. […]

SOD = SOD protein expression, Western blot of corporal tissue; conditions: DM group treated with C3G
Procedure: as §1
The homogenized buffer solution was placed on ice for 15 min and centrifuged at 4° C. for 13,000 rpm for 15 minutes. […] 30 μg of the quantitative protein was denatured at 95° C. for 5 min and electrophoresis was performed on a 12% discontinuous sodium dodecylsulfate-polyacrylamide gel (SDS-PAGE). […] Chemiluminescence was detected using enhanced chemiluminescence Western blotting detection reagents and densitometric assessment of the bands on the autoradiogram was performed using Bio1D software (version 97; Vilber Lourmat, France).

eNOS = eNOS protein expression, Western blot of corporal tissue; conditions: C3G treatment group versus DM group, corrected against actin
Procedure: as §1
(§3) The homogenized buffer solution was placed on ice for 15 min and centrifuged at 4° C. for 13,000 rpm for 15 minutes. […] 30 μg of the quantitative protein was denatured at 95° C. for 5 min and electrophoresis was performed on a 12% discontinuous sodium dodecylsulfate-polyacrylamide gel (SDS-PAGE). […] Chemiluminescence was detected using enhanced chemiluminescence Western blotting detection reagents and densitometric assessment of the bands on the autoradiogram was performed using Bio1D software (version 97; Vilber Lourmat, France). […]

nNOS = nNOS protein expression, Western blot of corporal tissue; conditions: C3G treatment group versus DM group, corrected against actin
Procedure: as §1, §3

[6] = C3G treatment group versus DM group

Structure (SMILES): OC[C@H]1O[C@@H](Oc2cc3c(O)cc(O)cc3[o+]c2-c2ccc(O)c(O)c2)[C@H](O)[C@@H](O)[C@@H]1O [C3G, Cyanidin-3-O-β-d-glucopyranoside]
- 8-OHdG in the corpora tissue by ELISA [1]: 0.626±0.423
- collagen content of corpora tissues [2, 6]: collagen content decreased
- smooth muscle content of corpora tissues [2, 6]: smooth muscle content increased
- muscle/collagen ratio ([2]; diabetic rats, daily oral C3G 10 mg/kg for 8 weeks, DM 10.6±4.6, control 27.3±3.0): 21.8±1.7
- mean apoptotic index ± standard deviation (TUNEL) [3]: 21.3±1.7
- Serum glucose ([4]; 4 wk after diabetes induction (start of daily oral C3G 10 mg/kg)): 462 ± 90 mg/dL
- Serum glucose ([4]; 8 wk, daily oral C3G 10 mg/kg from week 4): 448 ± 143 mg/dL
- Serum glucose ([4]; 12 wk, daily oral C3G 10 mg/kg for 8 weeks): 469 ± 163 mg/dL
- Serum glucose ([4]; Pre-DM induction (before C3G treatment)): 141 ± 13 mg/dL
- ICP/MAP ratio ([5]; DM group 0.32 ± 0.06, control 0.77 ± 0.05): 0.55 ± 0.11
- Peak ICP ([5]; cavernosal nerve stimulation, DM group 35.4 ± 4.5, control 83.3 ± 1.9): 58.0 ± 4.6
- SOD expression (western blot) (SOD): expressed more in the DM group treated with C3G than in the control group
- eNOS protein level (western blot, densitogram) (eNOS): levels increased
- nNOS protein level (western blot, densitogram) (nNOS): levels increased
